One compound from patent US20230157970A1, “Targeted Therapy of Kidney Fibrosis” (Board of Regents, The University of Texas System, priority 2021, published 2023) can be followed below.

One experiment relates to CKD model. In words: Folic acid CKD model, kidney size after harvesting. The conditions noted are these: folic acid CKD mice; 10 mg/kg, Navi oral, nanoparticles IV. It is filed as in vivo. As for the experimental part:
This example was an animal study that created a CKD model by injecting 250 mg/kg folic acid intraperitonially (single injection). After 15 days the treatment started. The mice were divided in 5 groups of untreated, healthy, Fausidil, PLGA-Navitoclax, and PLGA-AT2-Navitoclax. FIG. 5: Figure: Image of the kidney after harvesting. The kidney from different treatment groups: A-Healthy control 510, B-Untreated control 520, C-Navi(10 mg/kg oral) 530, D-Fausidil(10 mg/kg IP) 540, E-PLGA-Navi(10 mg/kg IV) 550, F-PLGA-AT2-Navi(10 mg/kg IV) 560. FIGS. 6A-6B: The size of the untreated kidney shrunk by 42.46% (p-value 0.0062) than the healthy control (A). […] The weight of kidney (B) was also measured in gm and the weight 620 of the kidney treated with PLGA-AT2-Navi.

The test system of a further experiment is Bcl2. In words: Western blot analysis from the kidney sample, Bcl2. It is filed as in vivo, mice. The conditions noted are these: 10 mg/kg, compared with other groups. As for the experimental part: This example was an animal study that created a CKD model by injecting 250 mg/kg folic acid intraperitonially (single injection). After 15 days the treatment started. The mice were divided in 5 groups of untreated, healthy, Fausidil, PLGA-Navitoclax, and PLGA-AT2-Navitoclax.
FIG. 8: Western blot analysis from the kidney sample. Bcl2 expression was decreased in the sample collected from different group Healthy control, Untreated control, Navi(10 mg/kg oral), Fausidil(10 mg/kg IP), PLGA-Navi(10 mg/kg IV), PLGA-AT2-Navi(10 mg/kg IV) of mice.

For experiment [1], the system named is apoptosis in kidney section. The experiment is described as follows: TUNEL assay of kidney section. It is filed as in vivo, mice. Here is the method: This example was an animal study that created a CKD model by injecting 250 mg/kg folic acid intraperitonially (single injection). After 15 days the treatment started. The mice were divided in 5 groups of untreated, healthy, Fausidil, PLGA-Navitoclax, and PLGA-AT2-Navitoclax. FIGS. 9A-9R: Immunohistochemistry (IHC) and TUNEL assay of kidney section. IHC for alpha-SMA protein of different treatment group (A-F). The arrow pointed to the dark dot which represented the alpha-SMA protein. […] The dark dot from FIGS. 9G-9L represented the CTGF protein.

For `CC1(C)CCC(c2ccc(Cl)cc2)=C(CN2CCN(c3ccc(C(=O)NS(=O)(=O)c4ccc(N[C@H](CCN5CCOCC5)CSc5ccccc5)c(S(=O)(=O)C(F)(F)F)c4)cc3)CC2)C1` [Navitoclax], in the experiment on CKD model, the “increase of kidney size after treatment” value is given as 43.95%. Also, the Bcl2 expression entry in the experiment with Bcl2 is given as “less expression of bcl2”. Also, in experiment [1], the “apoptosis (broken nucleus of DNA) by TUNEL” value is given as “apoptosis was observed”.
